Data reported in ChEMBL document CHEMBL1138445, “Design and synthesis of potent inhibitors of cholesteryl ester transfer protein (CETP) exploiting a 1,2,3,4-tetrahydroquinoline platform” (Bioorg Med Chem Lett, 2009).

What was measured:
[1] = molecular target: T1, Cholesteryl ester transfer protein (Homo sapiens) (UniProt P11597); assay: Inhibition of human plasma derived CETP relative to control; set-up: concentration or dose not given beside the values; conditions: concentration not given here
T1 sequence (whole entry): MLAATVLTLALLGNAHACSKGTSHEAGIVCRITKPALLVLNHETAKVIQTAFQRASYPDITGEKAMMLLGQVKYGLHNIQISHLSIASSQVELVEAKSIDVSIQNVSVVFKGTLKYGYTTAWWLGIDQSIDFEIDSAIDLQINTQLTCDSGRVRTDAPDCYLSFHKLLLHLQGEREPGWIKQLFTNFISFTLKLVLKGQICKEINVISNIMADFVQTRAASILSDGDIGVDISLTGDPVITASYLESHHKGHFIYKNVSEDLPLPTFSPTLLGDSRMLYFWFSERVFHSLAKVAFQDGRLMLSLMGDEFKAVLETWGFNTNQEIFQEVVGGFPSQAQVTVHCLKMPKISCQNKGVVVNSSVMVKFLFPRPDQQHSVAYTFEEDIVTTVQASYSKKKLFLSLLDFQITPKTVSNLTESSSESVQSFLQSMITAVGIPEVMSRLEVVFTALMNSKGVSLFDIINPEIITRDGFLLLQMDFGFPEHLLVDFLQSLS

[2] = molecular target: T2, Cholesteryl ester transfer protein (Homo sapiens, UniProt P11597); assay: Inhibition of human plasma derived CETP; format: cell-free
T2 sequence (P11597 whole entry): T1 sequence (whole entry)

Cytochrome P450 2D6 = Cytochrome P450 2D6 (Homo sapiens, UniProt P10635); assay: Inhibition of CYP2D6 from human liver microsomes; format: ADME
[3] = Cmax in Sprague-Dawley rat at 10 mg/kg, po; format: ADME, organism-based; set-up: dose 10 mg/kg, route oral; conditions: in vivo
[4] = Tmax in Sprague-Dawley rat at 10 mg/kg, po; format: ADME, organism-based; set-up: dose 10 mg/kg, route oral; conditions: in vivo
[5] = Half life in Sprague-Dawley rat at 10 mg/kg, po; format: ADME, organism-based; set-up: dose 10 mg/kg, route oral; conditions: in vivo
[6] = AUC in Sprague-Dawley rat at 10 mg/kg, po; format: ADME, organism-based; set-up: dose 10 mg/kg, route oral; conditions: plasma
[7] = Oral bioavailability in Sprague-Dawley rat at 10 mg/kg; format: ADME, organism-based; conditions: in vivo
[8] = Plasma clearance in Sprague-Dawley rat at 2 mg/kg, iv; format: ADME, organism-based; set-up: dose 2 mg/kg, route intravenous
[9] = Volume of distribution at steady state in Sprague-Dawley rat at 2 mg/kg, iv; format: ADME, organism-based; set-up: dose 2 mg/kg, route intravenous; conditions: in vivo, read-out: Vdss
[10] = Cmax in Sprague-Dawley rat at 2 mg/kg, iv; format: ADME, organism-based; set-up: dose 2 mg/kg, route intravenous; conditions: in vivo
[11] = Half life in Sprague-Dawley rat at 2 mg/kg, iv; format: ADME, organism-based; set-up: dose 2 mg/kg, route intravenous; conditions: in vivo
[12] = AUC in Sprague-Dawley rat at 2 mg/kg, iv; format: ADME, organism-based; set-up: dose 2 mg/kg, route intravenous; conditions: plasma
[13] = Permeability across human Caco-2 cell; format: ADME, cell-based; conditions: read-out: permeability
[14] = Metabolic stability in human liver microsomes assessed as half life; format: ADME, Microsome
Cytochrome P450 2C9 = Cytochrome P450 2C9 (Homo sapiens, UniProt P11712); assay: Inhibition of CYP2C9 from human liver microsomes; format: ADME
Cytochrome P450 2A6 = molecular target: T3, Cytochrome P450 2A6 (Homo sapiens, UniProt P11509); assay: Inhibition of CYP2A6 from human liver microsomes; format: ADME
T3 sequence (P11509 whole entry): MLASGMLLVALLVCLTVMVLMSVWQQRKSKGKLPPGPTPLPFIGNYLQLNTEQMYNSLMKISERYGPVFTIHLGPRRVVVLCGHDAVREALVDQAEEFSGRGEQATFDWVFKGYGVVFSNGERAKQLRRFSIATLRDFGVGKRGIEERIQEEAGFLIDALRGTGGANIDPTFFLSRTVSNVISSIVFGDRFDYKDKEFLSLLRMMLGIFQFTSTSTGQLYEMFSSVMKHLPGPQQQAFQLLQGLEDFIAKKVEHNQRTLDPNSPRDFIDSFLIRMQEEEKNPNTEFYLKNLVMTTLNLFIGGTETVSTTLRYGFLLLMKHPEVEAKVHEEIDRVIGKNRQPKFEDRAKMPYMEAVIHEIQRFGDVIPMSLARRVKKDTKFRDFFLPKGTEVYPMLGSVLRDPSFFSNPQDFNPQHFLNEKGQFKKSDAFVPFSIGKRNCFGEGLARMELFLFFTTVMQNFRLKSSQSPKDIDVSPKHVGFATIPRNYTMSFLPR

Cytochrome P450 2C19 = Cytochrome P450 2C19 (Homo sapiens, UniProt P33261); assay: Inhibition of CYP2C19 from human liver microsomes; format: ADME
Cytochrome P450 2E1 = Cytochrome P450 2E1 (Homo sapiens, UniProt P05181); assay: Inhibition of CYP2E1 from human liver microsomes; format: ADME
Cytochrome P450 1A2 = molecular target: T4, Cytochrome P450 1A2 (Homo sapiens, UniProt P05177); assay: Inhibition of CYP1A2 from human liver microsomes; format: ADME
T4 sequence (P05177 whole entry): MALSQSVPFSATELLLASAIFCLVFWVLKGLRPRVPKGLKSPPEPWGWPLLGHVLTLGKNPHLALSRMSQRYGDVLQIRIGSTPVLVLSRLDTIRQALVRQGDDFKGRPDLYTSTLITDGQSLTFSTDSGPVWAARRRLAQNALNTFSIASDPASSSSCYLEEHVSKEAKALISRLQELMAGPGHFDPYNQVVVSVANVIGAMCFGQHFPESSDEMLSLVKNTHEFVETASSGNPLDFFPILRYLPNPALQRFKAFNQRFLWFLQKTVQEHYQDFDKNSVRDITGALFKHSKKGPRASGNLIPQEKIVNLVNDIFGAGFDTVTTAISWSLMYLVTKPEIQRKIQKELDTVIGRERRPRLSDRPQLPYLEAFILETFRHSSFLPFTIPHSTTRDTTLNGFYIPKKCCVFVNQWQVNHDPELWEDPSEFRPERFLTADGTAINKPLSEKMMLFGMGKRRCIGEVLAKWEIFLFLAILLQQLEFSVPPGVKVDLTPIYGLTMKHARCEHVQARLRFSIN

Cytochrome P450 3A4 = Cytochrome P450 3A4 (Homo sapiens, UniProt P08684); assay: Inhibition of CYP3A4 from human liver microsomes; format: ADME
Chain of Cytochrome P450 3A4 (P08684 whole entry): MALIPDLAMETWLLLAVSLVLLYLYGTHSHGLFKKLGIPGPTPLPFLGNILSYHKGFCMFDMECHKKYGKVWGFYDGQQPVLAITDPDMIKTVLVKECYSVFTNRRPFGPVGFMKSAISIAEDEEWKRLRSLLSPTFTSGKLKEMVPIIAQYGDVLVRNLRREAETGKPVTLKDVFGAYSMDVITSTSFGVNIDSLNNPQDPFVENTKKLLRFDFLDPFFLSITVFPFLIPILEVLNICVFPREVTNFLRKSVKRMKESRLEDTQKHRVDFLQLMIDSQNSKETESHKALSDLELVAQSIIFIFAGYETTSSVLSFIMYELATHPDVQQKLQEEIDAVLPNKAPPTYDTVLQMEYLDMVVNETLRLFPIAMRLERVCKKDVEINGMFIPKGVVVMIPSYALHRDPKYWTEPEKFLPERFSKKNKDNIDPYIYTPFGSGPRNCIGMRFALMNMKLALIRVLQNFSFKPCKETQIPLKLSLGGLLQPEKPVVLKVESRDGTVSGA

Chain of Cytochrome P450 2E1 (P05181 whole entry): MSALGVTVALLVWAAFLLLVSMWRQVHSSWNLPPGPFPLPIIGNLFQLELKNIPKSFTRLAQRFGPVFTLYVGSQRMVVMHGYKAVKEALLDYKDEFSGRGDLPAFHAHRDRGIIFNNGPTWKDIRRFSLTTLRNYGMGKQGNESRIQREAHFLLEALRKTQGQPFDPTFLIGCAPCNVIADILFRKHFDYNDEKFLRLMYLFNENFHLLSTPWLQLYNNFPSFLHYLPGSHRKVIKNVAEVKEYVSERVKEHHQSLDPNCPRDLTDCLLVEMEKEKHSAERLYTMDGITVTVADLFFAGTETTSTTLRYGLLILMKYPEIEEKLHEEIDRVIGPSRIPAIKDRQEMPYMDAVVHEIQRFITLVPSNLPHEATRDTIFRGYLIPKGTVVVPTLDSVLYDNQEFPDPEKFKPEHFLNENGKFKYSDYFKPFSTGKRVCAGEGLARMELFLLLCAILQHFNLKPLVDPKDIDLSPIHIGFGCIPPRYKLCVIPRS
Chain of Cytochrome P450 2D6 (P10635 whole entry): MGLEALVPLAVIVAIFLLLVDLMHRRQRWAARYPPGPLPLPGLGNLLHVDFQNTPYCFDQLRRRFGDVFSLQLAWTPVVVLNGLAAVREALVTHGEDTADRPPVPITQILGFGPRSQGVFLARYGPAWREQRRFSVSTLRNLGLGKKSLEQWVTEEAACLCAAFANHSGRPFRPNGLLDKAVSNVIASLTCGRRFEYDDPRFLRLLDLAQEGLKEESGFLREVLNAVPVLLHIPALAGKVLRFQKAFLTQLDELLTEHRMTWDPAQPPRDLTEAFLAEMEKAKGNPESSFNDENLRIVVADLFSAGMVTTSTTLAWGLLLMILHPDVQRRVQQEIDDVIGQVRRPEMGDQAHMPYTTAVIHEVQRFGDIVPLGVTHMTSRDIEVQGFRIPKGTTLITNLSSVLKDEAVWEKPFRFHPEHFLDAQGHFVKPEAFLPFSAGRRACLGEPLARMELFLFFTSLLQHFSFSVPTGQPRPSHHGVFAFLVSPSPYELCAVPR
Chain of Cytochrome P450 2C19 (P33261 whole entry): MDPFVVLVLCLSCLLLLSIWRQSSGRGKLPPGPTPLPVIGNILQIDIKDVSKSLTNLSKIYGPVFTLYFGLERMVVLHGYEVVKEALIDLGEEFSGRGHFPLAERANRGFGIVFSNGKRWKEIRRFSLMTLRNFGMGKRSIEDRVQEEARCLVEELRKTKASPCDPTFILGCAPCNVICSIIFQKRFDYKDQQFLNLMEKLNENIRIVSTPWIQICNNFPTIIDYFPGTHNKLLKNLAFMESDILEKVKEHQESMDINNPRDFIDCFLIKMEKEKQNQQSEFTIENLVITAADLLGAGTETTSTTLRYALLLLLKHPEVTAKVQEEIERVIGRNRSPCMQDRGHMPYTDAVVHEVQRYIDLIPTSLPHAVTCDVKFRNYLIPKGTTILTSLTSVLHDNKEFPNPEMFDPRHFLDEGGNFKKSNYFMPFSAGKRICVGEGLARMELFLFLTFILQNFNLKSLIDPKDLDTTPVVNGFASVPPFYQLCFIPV
Chain of Cytochrome P450 2C9 (P11712 whole entry): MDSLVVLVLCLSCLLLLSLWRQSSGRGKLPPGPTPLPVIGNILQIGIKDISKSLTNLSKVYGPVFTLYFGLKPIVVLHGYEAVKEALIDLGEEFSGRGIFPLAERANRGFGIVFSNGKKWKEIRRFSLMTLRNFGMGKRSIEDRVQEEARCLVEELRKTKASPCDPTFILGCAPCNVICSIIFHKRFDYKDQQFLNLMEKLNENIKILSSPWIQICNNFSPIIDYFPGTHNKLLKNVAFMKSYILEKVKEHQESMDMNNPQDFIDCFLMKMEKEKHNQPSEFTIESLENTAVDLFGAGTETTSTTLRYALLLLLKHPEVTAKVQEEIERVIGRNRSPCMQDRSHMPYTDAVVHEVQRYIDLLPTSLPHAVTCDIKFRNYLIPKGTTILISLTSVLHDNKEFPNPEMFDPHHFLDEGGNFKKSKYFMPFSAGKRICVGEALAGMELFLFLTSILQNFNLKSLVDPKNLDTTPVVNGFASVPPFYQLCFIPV

## C[C@@H](O)CN1c2cccc(-c3cccc(OC(F)(F)F)c3)c2CC[C@@H]1c1cccc(OC(F)(F)F)c1
[1]
  inhibition: 68%
[2]
  IC50: 0.125 µM

## CC(C)Oc1cccc(-c2cccc3c2CCC(c2cccc(OC(F)(F)C(F)F)c2)N3CC(O)C(F)(F)F)c1 (stereo not given)
[1]
  inhibition: 55%
[2]
  IC50: 0.345 µM

## OC(CN1c2cccc(-c3ccc(OC(F)(F)F)cc3)c2CCC1c1cccc(OC(F)(F)C(F)F)c1)C(F)(F)F (single isomer, unassigned; diastereomer 1)
[1]
  inhibition: 85%
[2]
  IC50: 0.5 µM

## OC(CN1c2cccc(-c3cccnc3)c2CCC1c1cccc(OC(F)(F)C(F)F)c1)C(F)(F)F (single isomer, unassigned; diastereomer 1)
[1]
  inhibition: 47%
[2]
  IC50: > 3 µM

## OC(CN1c2cccc(-c3cccs3)c2CCC1c1cccc(OC(F)(F)C(F)F)c1)C(F)(F)F (single isomer, unassigned; diastereomer 1)
[1]
  inhibition: 63%
[2]
  IC50: 0.317 µM

## CC(C)c1cccc(-c2cccc3c2CCC(c2cccc(OC(F)(F)C(F)F)c2)N3CC(O)C(F)(F)F)c1 (single isomer, unassigned; diastereomer 1)
[1]
  inhibition: 63%
[2]
  IC50: 0.277 µM

## O[C@@H](CN1c2cccc(-c3cccc(OC(F)(F)F)c3)c2CC[C@@H]1c1cccc(OC(F)(F)F)c1)C(F)(F)F [TETRAHYDROQUINOLINE A]
Cytochrome P450 2D6
  Activity: Not Active
[1]
  inhibition: 85%
[2]
  IC50: 0.039 µM
[3]
  Cmax: 950 ng/mL
[4]
  Tmax: 6 h
[5]
  half-life: 28 h
[6]
  AUC: 31300 ng·h/mL
[7]
  bioavailability: 31%
[8]
  clearance: 1.8 mL/min/kg
[9]
  Vd: 0.36 L/kg
[10]
  Cmax: 31400 ng/mL
[11]
  half-life: 17.4 h
[12]
  AUC: 18900 ng·h/mL
[13]
  Papp: 4.7 ×10⁻⁶ cm/s
[14]
  half-life: > 2.13 h
Cytochrome P450 2C9
  Activity: Not Active
Cytochrome P450 2A6
  Activity: Not Active
Cytochrome P450 2C19
  Activity: Not Active
Cytochrome P450 2E1
  Activity: Not Active
Cytochrome P450 1A2
  Activity: Not Active
Cytochrome P450 3A4
  Activity: Not Active

## O[C@H](CN1c2cccc(-c3cccc(OC(F)(F)F)c3)c2CC[C@@H]1c1cccc(OC(F)(F)F)c1)C(F)(F)F [TETRAHYDROQUINOLINE B]
[1]
  inhibition: 62%
[2]
  IC50: > 3 µM
